From the NIST ThermoML archive (doi:10.1016/j.jct.2005.03.019)

Assay: xn = mol fraction of the nth substance listed
Conditions: 101 kPa, Liquid, Vibrating tube method

CC1COC(=O)O1 (centres undefined) [4-methyl-1,3-dioxolan-2-one] + Cc1ccccc1
Conditions	mass density [kg/m3]
293.15 K, x2 = 0	1200.3
293.15 K, x2 = 0.0578	1177.7
293.15 K, x2 = 0.1279	1151
293.15 K, x2 = 0.1735	1133.9
293.15 K, x2 = 0.2387	1110
293.15 K, x2 = 0.3248	1079.4
293.15 K, x2 = 0.3891	1057.1
293.15 K, x2 = 0.4398	1039.9
293.15 K, x2 = 0.5179	1014
293.15 K, x2 = 0.5621	999.7
293.15 K, x2 = 0.6381	975.4
293.15 K, x2 = 0.7139	951.8
293.15 K, x2 = 0.7639	936.5
293.15 K, x2 = 0.8247	918.2
293.15 K, x2 = 0.8739	903.6
293.15 K, x2 = 0.9376	884.9
303.15 K, x2 = 0	1180.6
303.15 K, x2 = 0.0516	1161
303.15 K, x2 = 0.1211	1135.3
303.15 K, x2 = 0.1782	1114.7
303.15 K, x2 = 0.2298	1096.4
303.15 K, x2 = 0.2971	1073
303.15 K, x2 = 0.3565	1052.9
303.15 K, x2 = 0.4134	1034
303.15 K, x2 = 0.4681	1016.2
303.15 K, x2 = 0.5371	994.2
303.15 K, x2 = 0.6021	973.9
303.15 K, x2 = 0.6629	955.4
303.15 K, x2 = 0.7232	937.2
303.15 K, x2 = 0.7832	919.5
303.15 K, x2 = 0.8537	899.1
303.15 K, x2 = 0.9245	878.8
313.15 K, x2 = 0	1161.3
313.15 K, x2 = 0.0467	1144.2
313.15 K, x2 = 0.1274	1115.2
313.15 K, x2 = 0.1832	1095.7
313.15 K, x2 = 0.2572	1070.4
313.15 K, x2 = 0.3291	1046.5
313.15 K, x2 = 0.3938	1025.5
313.15 K, x2 = 0.4531	1006.7
313.15 K, x2 = 0.5291	983.2
313.15 K, x2 = 0.5919	964.2
313.15 K, x2 = 0.6472	947.7
313.15 K, x2 = 0.6938	934.1
313.15 K, x2 = 0.7524	917.2
313.15 K, x2 = 0.8138	899.7
313.15 K, x2 = 0.8623	886.1
313.15 K, x2 = 0.9427	863.9
323.15 K, x2 = 0	1142.4
323.15 K, x2 = 0.0592	1121.4
323.15 K, x2 = 0.114	1102.4
323.15 K, x2 = 0.1734	1082.1
323.15 K, x2 = 0.2378	1060.7
323.15 K, x2 = 0.3139	1036
323.15 K, x2 = 0.3681	1018.8
323.15 K, x2 = 0.4244	1001.4
323.15 K, x2 = 0.4711	987.1
323.15 K, x2 = 0.5137	974.3
323.15 K, x2 = 0.5828	954
323.15 K, x2 = 0.6528	933.8
323.15 K, x2 = 0.725	913.4
323.15 K, x2 = 0.7941	894.2
323.15 K, x2 = 0.8529	878.2
323.15 K, x2 = 0.9172	860.9
333.15 K, x2 = 0	1124
333.15 K, x2 = 0.0545	1105.2
333.15 K, x2 = 0.1287	1080.2
333.15 K, x2 = 0.1831	1062.3
333.15 K, x2 = 0.2417	1043.4
333.15 K, x2 = 0.3274	1016.5
333.15 K, x2 = 0.3818	999.9
333.15 K, x2 = 0.4383	983
333.15 K, x2 = 0.4819	970.1
333.15 K, x2 = 0.5381	953.9
333.15 K, x2 = 0.5821	941.3
333.15 K, x2 = 0.6421	924.5
333.15 K, x2 = 0.7138	904.8
333.15 K, x2 = 0.7832	886.1
333.15 K, x2 = 0.8527	867.7
333.15 K, x2 = 0.9323	846.9
343.15 K, x2 = 0	1106
343.15 K, x2 = 0.0613	1085.5
343.15 K, x2 = 0.1248	1064.7
343.15 K, x2 = 0.1822	1046.3
343.15 K, x2 = 0.2489	1025.5
343.15 K, x2 = 0.3011	1009.5
343.15 K, x2 = 0.3719	988.4
343.15 K, x2 = 0.458	963.3
343.15 K, x2 = 0.5043	950.2
343.15 K, x2 = 0.5729	931.1
343.15 K, x2 = 0.6429	912
343.15 K, x2 = 0.7041	895.7
343.15 K, x2 = 0.7634	880.1
343.15 K, x2 = 0.8241	864.4
343.15 K, x2 = 0.8721	852.2
343.15 K, x2 = 0.9347	836.3
353.15 K, x2 = 0	1088.4
353.15 K, x2 = 0.0524	1071.3
353.15 K, x2 = 0.1139	1051.6
353.15 K, x2 = 0.1942	1026.6
353.15 K, x2 = 0.2589	1007
353.15 K, x2 = 0.3238	987.8
353.15 K, x2 = 0.4035	964.9
353.15 K, x2 = 0.4598	949.1
353.15 K, x2 = 0.5243	931.4
353.15 K, x2 = 0.5825	915.7
353.15 K, x2 = 0.6359	901.6
353.15 K, x2 = 0.693	886.8
353.15 K, x2 = 0.7749	865.9
353.15 K, x2 = 0.8371	850.3
353.15 K, x2 = 0.8689	842.4
353.15 K, x2 = 0.9432	824.2

CC1COC(=O)O1 (centres undefined) [4-methyl-1,3-dioxolan-2-one] + c1ccccc1
Conditions	mass density [kg/m3]
293.15 K, x2 = 0	1200.3
293.15 K, x2 = 0.049	1184.5
293.15 K, x2 = 0.1189	1162
293.15 K, x2 = 0.1749	1144.1
293.15 K, x2 = 0.2349	1125
293.15 K, x2 = 0.2949	1105.9
293.15 K, x2 = 0.3649	1083.6
293.15 K, x2 = 0.4248	1064.6
293.15 K, x2 = 0.4959	1041.9
293.15 K, x2 = 0.5529	1023.8
293.15 K, x2 = 0.6249	1000.7
293.15 K, x2 = 0.6934	978.6
293.15 K, x2 = 0.7539	959
293.15 K, x2 = 0.8135	939.6
293.15 K, x2 = 0.8622	923.6
293.15 K, x2 = 0.9248	902.9
303.15 K, x2 = 0	1180.6
303.15 K, x2 = 0.0487	1165.3
303.15 K, x2 = 0.1273	1140.9
303.15 K, x2 = 0.1841	1123.3
303.15 K, x2 = 0.2487	1103.3
303.15 K, x2 = 0.3127	1083.6
303.15 K, x2 = 0.3749	1064.4
303.15 K, x2 = 0.4364	1045.4
303.15 K, x2 = 0.4821	1031.4
303.15 K, x2 = 0.5428	1012.6
303.15 K, x2 = 0.6038	993.7
303.15 K, x2 = 0.6782	970.5
303.15 K, x2 = 0.7465	949.1
303.15 K, x2 = 0.8246	924.4
303.15 K, x2 = 0.8846	905.3
303.15 K, x2 = 0.9381	888.1
313.15 K, x2 = 0	1161.3
313.15 K, x2 = 0.0537	1145
313.15 K, x2 = 0.1295	1122
313.15 K, x2 = 0.1649	1111.4
313.15 K, x2 = 0.2359	1090
313.15 K, x2 = 0.3139	1066.7
313.15 K, x2 = 0.3619	1052.3
313.15 K, x2 = 0.4143	1036.6
313.15 K, x2 = 0.4829	1016.1
313.15 K, x2 = 0.5498	996.1
313.15 K, x2 = 0.625	973.4
313.15 K, x2 = 0.6821	956.2
313.15 K, x2 = 0.7492	935.8
313.15 K, x2 = 0.8247	912.6
313.15 K, x2 = 0.8732	897.6
313.15 K, x2 = 0.9348	878.4
323.15 K, x2 = 0	1142.4
323.15 K, x2 = 0.0598	1124.7
323.15 K, x2 = 0.131	1103.7
323.15 K, x2 = 0.1856	1087.7
323.15 K, x2 = 0.2438	1070.7
323.15 K, x2 = 0.3257	1046.8
323.15 K, x2 = 0.3987	1025.6
323.15 K, x2 = 0.4589	1008.1
323.15 K, x2 = 0.5156	991.6
323.15 K, x2 = 0.5687	976.1
323.15 K, x2 = 0.6145	962.7
323.15 K, x2 = 0.6647	948
323.15 K, x2 = 0.7365	926.8
323.15 K, x2 = 0.7965	909
323.15 K, x2 = 0.8567	891
323.15 K, x2 = 0.9267	869.8
333.15 K, x2 = 0	1124
333.15 K, x2 = 0.0592	1106.9
333.15 K, x2 = 0.1281	1087
333.15 K, x2 = 0.1834	1071.2
333.15 K, x2 = 0.2487	1052.6
333.15 K, x2 = 0.3279	1030.1
333.15 K, x2 = 0.3987	1010
333.15 K, x2 = 0.4598	992.7
333.15 K, x2 = 0.5139	977.4
333.15 K, x2 = 0.5533	966.2
333.15 K, x2 = 0.6138	949
333.15 K, x2 = 0.6623	935.1
333.15 K, x2 = 0.7246	917.3
333.15 K, x2 = 0.7749	902.7
333.15 K, x2 = 0.8568	878.9
333.15 K, x2 = 0.9248	858.9
343.15 K, x2 = 0	1106
343.15 K, x2 = 0.0638	1087.9
343.15 K, x2 = 0.1139	1073.8
343.15 K, x2 = 0.1756	1056.4
343.15 K, x2 = 0.2439	1037.4
343.15 K, x2 = 0.3178	1016.9
343.15 K, x2 = 0.3875	997.6
343.15 K, x2 = 0.4583	978
343.15 K, x2 = 0.5076	964.3
343.15 K, x2 = 0.5586	950.2
343.15 K, x2 = 0.6246	931.9
343.15 K, x2 = 0.6981	911.4
343.15 K, x2 = 0.7528	896.1
343.15 K, x2 = 0.8137	878.9
343.15 K, x2 = 0.8748	861.5
343.15 K, x2 = 0.9361	843.9
353.15 K, x2 = 0	1088.4
353.15 K, x2 = 0.053	1073.6
353.15 K, x2 = 0.1329	1051.5
353.15 K, x2 = 0.1822	1037.9
353.15 K, x2 = 0.2378	1022.7
353.15 K, x2 = 0.3327	996.9
353.15 K, x2 = 0.381	983.8
353.15 K, x2 = 0.4485	965.5
353.15 K, x2 = 0.5236	945.2
353.15 K, x2 = 0.5728	931.9
353.15 K, x2 = 0.6387	914
353.15 K, x2 = 0.6831	901.9
353.15 K, x2 = 0.7428	885.6
353.15 K, x2 = 0.7933	871.7
353.15 K, x2 = 0.8642	852.1
353.15 K, x2 = 0.9461	829.2
